For 3 molecules, pest or weed control and melting point results are on record in patent US9629365B2, “Macrocyclic picolinamides compounds with fungicidal activity” (DOW AGROSCIENCES LLC, priority 2013, dated 2017).

Structures are written as SMILES. Where two headings read alike, the source gives them in different places.

The test system of one data set is Puccinia triticina. As to the kind of experiment: Wheat Brown Rust (PUCCRT) fungicidal activity. The data set is classed as in vivo. The note with it: for pest or weed control at 100 ppm: rate 100 ppm (high volume application); for pest or weed control at 121.5 g/ha: rate 121.5 g/H (low volume application). The method, then:
(§1) Technical grades of materials were dissolved in acetone, which were then mixed with nine volumes of water containing 110 ppm Triton X-100. The fungicide solutions were applied onto wheat seedlings using an automated booth sprayer to run-off. All sprayed plants were allowed to air dry prior to further handling. All fungicides were evaluated using the aforementioned method for their activity vs. all target diseases. Wheat leaf blotch and brown rust activity were also evaluated using track spray applications, in which case the fungicides were formulated as EC formulations, containing 0.1% Trycol 5941 in the spray solutions. Wheat plants (variety Yuma) were grown from seed in a greenhouse in 50% mineral soil/50% soil-less Metro mix until the first leaf was fully emerged, with 7-10 seedlings per pot. These plants were inoculated with an aqueous spore suspension of Septoria tritici either prior to or after fungicide treatments. After inoculation the plants were kept in 100% relative humidity (one day in a dark dew chamber followed by two to three days in a lighted dew chamber at 20° C.) to permit spores to germinate and infect the leaf. The plants were then transferred to a greenhouse set at 20° C. for disease to develop. When disease symptoms were fully expressed on the 1st leaves of untreated plants, infection levels were assessed on a scale of 0 to 100 percent disease severity. Percent disease control was calculated using the ratio of disease severity on treated plants relative to untreated plants. Wheat plants (variety Yuma) were grown from seed in a greenhouse in 50% mineral soil/50% soil-less Metro mix until the first leaf was fully emerged, with 7-10 seedlings per pot. These plants were inoculated with an aqueous spore suspension of Puccinia triticina either prior to or after fungicide treatments. After inoculation the plants were kept in a dark dew room at 22° C. with 100% relative humidity overnight to permit spores to germinate and infect the leaf. The plants were then transferred to a greenhouse set at 24° C. for disease to develop. Fungicide formulation, application and disease assessment followed the procedures as described in the Example A.

Data set [1] has as its system Mycosphaerella graminicola; Anamorph: Septoria tritici. As to the kind of experiment: Leaf Blotch of Wheat (SEPTTR) fungicidal activity. The data set is classed as in vivo. The note with it: Zymoseptoria tritici; for pest or weed control at 100 ppm: rate 100 ppm (high volume application); for pest or weed control at 121.5 g/ha: rate 121.5 g/H (low volume application). As to the method:
as §1, with “plants.” for “plants. Wheat plants (variety Yuma) were grown from seed in a greenhouse in 50% mineral soil/50% soil-less Metro mix until the first leaf was fully emerged, with 7-10 seedlings per pot. These plants were inoculated with an aqueous spore suspension of Puccinia triticina either prior to or after fungicide treatments. After inoculation the plants were kept in a dark dew room at 22° C. with 100% relative humidity overnight to permit spores to germinate and infect the leaf. The plants were then transferred to a greenhouse set at 24° C. for disease to develop. Fungicide formulation, application and disease assessment followed the procedures as described in the Example A.”

A further data set deals with Phakopsora pachyrhizi. Put plainly: Asian Soybean Rust (PHAKPA) fungicidal activity. The data set is classed as in vivo. The note with it: topical, soybean plants. The method, then: Technical grades of materials were dissolved in acetone, which were then mixed with nine volumes of water containing 0.011% Tween 20. The fungicide solutions were applied onto soybean seedlings using an automated booth sprayer to run-off. All sprayed plants were allowed to air dry prior to further handling.
Soybean plants (variety Williams 82) were grown in soil-less Metro mix, with one plant per pot. Two weeks old seedlings were used for testing. Plants were inoculated either 3 days prior to or 1 day after fungicide treatments. Plants were incubated for 24 h in a dark dew room at 22° C. and 100% RH then transferred to a growth room at 23° C. for disease to develop. Disease severity was assessed on the sprayed leaves.

The next data set has as its system Uncinula necator. As to the kind of experiment: Grape Powdery Mildew (UNCINE) fungicidal activity. Format: in vivo. Conditions: Erysiphe necator, 24 h, 1 Day Protectant, read-out: UNCINE 1DP Disease Control at 100 ppm.
For another data set, the system named is Alternaria solani. Put plainly: Tomato Early Blight (ALTESO) fungicidal activity. The note with it: 24 h, 1 Day Protectant, tomato plants, read-out: ALTESO Disease Control 1DP. Format: in vivo.
Data set [2] relates to Glomerella lagenarium; Anamorph: Colletotrichum lagenarium. Put plainly: Cucumber Anthracnose (COLLLA) fungicidal activity. The data set is classed as in vivo. The note with it: Colletotrichum orbiculare, 24 h, 1 Day Protectant, cucumber seedlings, read-out: COLLLA Disease Control 1DP.
Data set [3] has as its system Blumeria graminis f. Sp. Hordei. As to the kind of experiment: Barley Powdery Mildew (ERYSGH) fungicidal activity. The data set is classed as in vivo. The note with it: 24 h, 1 Day Protectant, barley seedlings, read-out: ERYSGH Disease Control 1DP.
The next data set relates to Rhyncosporium secalis. Put plainly: Barley Scald (RHYNSE) fungicidal activity. Format: in vivo. The note with it: Hordeum vulgare, 24 h, 1 Day Protectant, read-out: RHYNSE 1DP Disease Control at 100 ppm.
The next data set relates to Erysiphe cichoracearum. Put plainly: Powdery Mildew of Cucumber (ERYSCI) fungicidal activity. The data set is classed as in vivo. Conditions: Golovinomyces cichoracearum, topical, 24 h, 1 Day Protectant, cucumber seedlings, read-out: ERYSCI Disease Control 1DP.
For a further data set, the system named is Leptosphaeria nodorum. As to the kind of experiment: Wheat Glume Blotch (LEPTNO) fungicidal activity. The data set is classed as in vivo. Conditions: Parastagonospora nodorum, 24 h, 1 Day Protectant, read-out: LEPTNO 1DP Disease Control at 100 ppm. The method, then:
Technical grades of materials were dissolved in acetone, which were then mixed with nine volumes of water containing 110 ppm Triton X-100. The fungicide solutions were applied onto wheat seedlings using an automated booth sprayer to run-off. All sprayed plants were allowed to air dry prior to further handling. All fungicides were evaluated using the aforementioned method for their activity vs. all target diseases. Wheat leaf blotch and brown rust activity were also evaluated using track spray applications, in which case the fungicides were formulated as EC formulations, containing 0.1% Trycol 5941 in the spray solutions. Wheat plants (variety Yuma) were grown from seed in a greenhouse in 50% mineral soil/50% soil-less Metro mix until the first leaf was fully emerged, with 7-10 seedlings per pot. These plants were inoculated with an aqueous spore suspension of Septoria tritici either prior to or after fungicide treatments. […] When disease symptoms were fully expressed on the 1st leaves of untreated plants, infection levels were assessed on a scale of 0 to 100 percent disease severity. Percent disease control was calculated using the ratio of disease severity on treated plants relative to untreated plants. […]

Another data set concerns Cercospora beticola. Put plainly: Leaf Spot of Sugar Beets (CERCBE) fungicidal activity. Conditions: topical, 24 h, 1 Day Protectant, sugar beet plants, read-out: CERCBE Disease Control 1DP. Format: in vivo.
Another data set deals with Venturia inaequalis. As to the kind of experiment: Apple Scab (VENTIN) fungicidal activity. The data set is classed as in vivo. Conditions: 24 h, 1 Day Protectant, read-out: VENTIN 1DP Disease Control at 100 ppm.
For data set [4], the system named is Magnaporthe grisea; Anamorph: Pyricularia oryzae. Put plainly: whole plant or invertebrate. The data set is classed as in vivo. Conditions: 24 h, read-out: PYRIOR 1DP Disease Control at 100 ppm.
Where [5] appears, read: 24 h, 1 Day Protectant, read-out: PUCCRT 1DP disease control.
The mark [6] stands for this setting: 72 h, 3 Day Curative, read-out: PUCCRT 3DC disease control.
The mark [7] stands for this setting: 24 h, 1 Day Protectant, read-out: SEPTTR 1DP disease control.
[8] abbreviates: 72 h, 3 Day Curative, read-out: SEPTTR 3DC disease control.

Consider `COc1ccnc(C(=O)N[C@H]2CCC[C@H](Cc3ccc(F)cc3)[C@@H](OCC3CC3)[C@H](C)OC2=O)c1O` [F10], for which the pest or weed control at 100 ppm (in the data set with Puccinia triticina (setting [5]); in the data set with Puccinia triticina (setting [6]); in data set [1] (setting [7]); in data set [1] (setting [8])) was 80 to 100% in each case. Moreover, the pest or weed control at 121.5 g/ha was 80 to 100% in the data set on Puccinia triticina (setting [5]), 0 to 80% with Puccinia triticina (setting [6]), 80 to 100% in [1] (setting [7]) and 80 to 100% in data set [1] (setting [8]).
On to `CO[C@@H]1[C@@H](CCC(C)C)CCC[C@H](N)C(=O)O[C@H]1C.Cl`, for which the melting point lay in the range of 218 to 220 °C.
With `COc1ccnc(C(=O)N[C@H]2CCC[C@H](CCC(C)C)[C@@H](OC(=O)C3CCCC3)[C@H](C)OC2=O)c1OCOC(C)=O` [F96], the pest or weed control at 25 ppm in the data set with Phakopsora pachyrhizi (24 h, 1 Day Protectant, read-out: PHAKPA Disease Control 1DP) is 80 to 100%; in the data set on Phakopsora pachyrhizi (72 h, 3 Day Curative, read-out: PHAKPA Disease Control 3DC), 0 to 80%. In addition, the pest or weed control at 100 ppm in the data set on Uncinula necator was in the range of 80 to 100%; in the data set with Alternaria solani, 80 to 100%; in data set [2], 80 to 100%; in data set [3], 0 to 80%; with Puccinia triticina (setting [5]), 80 to 100%; with Puccinia triticina (setting [6]), 80 to 100%. For the same molecule, the pest or weed control at 100 ppm (in the data set on Rhyncosporium secalis; in the data set with Erysiphe cichoracearum; in data set [1] (setting [7]); in [1] (setting [8]); in the data set on Leptosphaeria nodorum; in the data set with Cercospora beticola) was 80 to 100% in each case. Also, the figures for the pest or weed control at 100 ppm (in the data set with Venturia inaequalis; in [4]) were 0 to 80% and 80 to 100%, respectively. The pest or weed control at 121.5 g/ha in the data set with Puccinia triticina (setting [5]) fell in the range of 80 to 100%; in the data set with Puccinia triticina (setting [6]), 0 to 80%; in [1] (setting [7]) it was 80 to 100%; in data set [1] (setting [8]) it was 80 to 100%.
